Patent US20160243149A1, “NOVEL ANTI-VIRAL THERAPEUTIC” (priority 2012, published 2016)

Biological target: T1, VPg unlinkase (Homo sapiens, UniProt O95551)
T1 construct: To generate the HeLa cell homogenate used for the isolation of VPg unlinkase, 5 ml of packed HeLa cells were homogenized; endogenous in cells; host or cells: HeLa cells (uninfected); enzyme fractionated from total cell homogenate
T1 sequence (O95551 1-362): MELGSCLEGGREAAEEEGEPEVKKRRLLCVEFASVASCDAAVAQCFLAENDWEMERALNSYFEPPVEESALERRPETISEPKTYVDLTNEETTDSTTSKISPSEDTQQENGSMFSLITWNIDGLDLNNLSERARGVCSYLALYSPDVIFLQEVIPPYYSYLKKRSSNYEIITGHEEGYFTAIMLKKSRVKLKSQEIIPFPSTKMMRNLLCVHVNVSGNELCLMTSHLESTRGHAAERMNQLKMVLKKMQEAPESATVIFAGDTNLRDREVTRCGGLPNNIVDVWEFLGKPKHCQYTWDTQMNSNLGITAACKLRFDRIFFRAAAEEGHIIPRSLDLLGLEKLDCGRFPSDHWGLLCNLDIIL
Type: biochemical

`Cl.Nc1ncnc2c1ncn2[C@@H]1O[C@H](COC(=O)c2ccc(S(=O)(=O)F)cc2)[C@@H](O)[C@H]1O` [5′FSBA] was tested, and the “suppression of unlinkase activity” value was “effectively suppressed unlinkase activity”.
